Holding throughout (format): biochemical
One experiment addresses PKC delta kinase (Homo sapiens, UniProt Q05655). Kind of experiment: PKC delta kinase inhibition, coupled-enzyme NADH absorbance assay (Ki). Particulars: 150 μM ATP, 46 nM PKC delta, 30° C.; read-out: Ki PKC delta. In short, it runs like this:
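Assay buffer was 100 mM HEPES pH 7.5, 10 mM MgCl2, 25 mM NaCl, 0.1 mM EDTA, 0.01% Brij. Enzyme buffer was equilibrated with compound in DMSO for 10 min at 30 °C. Ki values were derived by non-linear regression of initial rate data.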

The next experiment concerns the target PKC theta kinase (Homo sapiens, UniProt Q04759). As to the kind of experiment: PKC theta kinase inhibition, coupled-enzyme NADH absorbance assay (Ki). Particulars: 240 μM ATP, 18 nM PKC theta, 30° C.; read-out: Ki PKC theta. In short, it runs like this: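 Enzyme and compound equilibrated 10 min at 30 °C before reaction in HEPES pH 7.5 buffer with MgCl2, NaCl, EDTA and Brij. Activity tracked as NADH loss at 340 nm through a coupled system. Initial-rate data fitted by non-linear regression to give Ki.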

Another experiment deals with PKC alpha kinase (Homo sapiens, UniProt P17252). As to the kind of experiment: PKC alpha kinase inhibition, coupled-enzyme NADH absorbance assay (Ki). Particulars: 130 μM ATP, 4.5 nM PKC alpha, 30° C.; read-out: Ki PKC alpha.

Here are results for 46 molecules from patent US8173635B2, “Kinase inhibitors” (Vertex Pharmaceuticals Incorporated, priority 2007, dated 2012).

Chain of PKC delta kinase (Q05655 whole entry): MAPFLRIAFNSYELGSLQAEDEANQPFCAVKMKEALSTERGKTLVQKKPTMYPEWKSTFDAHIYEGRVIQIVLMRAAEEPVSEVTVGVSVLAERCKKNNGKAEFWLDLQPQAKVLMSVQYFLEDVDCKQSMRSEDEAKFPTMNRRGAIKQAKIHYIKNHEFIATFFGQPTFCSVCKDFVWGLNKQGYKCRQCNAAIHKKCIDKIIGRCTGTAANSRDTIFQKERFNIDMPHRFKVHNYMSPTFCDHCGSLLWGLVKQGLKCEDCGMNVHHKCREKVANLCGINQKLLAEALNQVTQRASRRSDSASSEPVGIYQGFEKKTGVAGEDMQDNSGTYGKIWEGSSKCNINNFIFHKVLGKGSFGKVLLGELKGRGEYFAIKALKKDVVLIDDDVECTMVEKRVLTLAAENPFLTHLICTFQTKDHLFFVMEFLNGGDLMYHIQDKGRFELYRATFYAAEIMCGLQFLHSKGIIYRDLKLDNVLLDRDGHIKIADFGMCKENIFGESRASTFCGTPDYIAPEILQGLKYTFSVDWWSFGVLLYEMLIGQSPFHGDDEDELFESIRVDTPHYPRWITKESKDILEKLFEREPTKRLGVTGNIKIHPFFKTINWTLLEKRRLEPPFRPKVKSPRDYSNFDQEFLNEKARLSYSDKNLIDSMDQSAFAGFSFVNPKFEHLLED
Chain of PKC theta kinase (Q04759 whole entry): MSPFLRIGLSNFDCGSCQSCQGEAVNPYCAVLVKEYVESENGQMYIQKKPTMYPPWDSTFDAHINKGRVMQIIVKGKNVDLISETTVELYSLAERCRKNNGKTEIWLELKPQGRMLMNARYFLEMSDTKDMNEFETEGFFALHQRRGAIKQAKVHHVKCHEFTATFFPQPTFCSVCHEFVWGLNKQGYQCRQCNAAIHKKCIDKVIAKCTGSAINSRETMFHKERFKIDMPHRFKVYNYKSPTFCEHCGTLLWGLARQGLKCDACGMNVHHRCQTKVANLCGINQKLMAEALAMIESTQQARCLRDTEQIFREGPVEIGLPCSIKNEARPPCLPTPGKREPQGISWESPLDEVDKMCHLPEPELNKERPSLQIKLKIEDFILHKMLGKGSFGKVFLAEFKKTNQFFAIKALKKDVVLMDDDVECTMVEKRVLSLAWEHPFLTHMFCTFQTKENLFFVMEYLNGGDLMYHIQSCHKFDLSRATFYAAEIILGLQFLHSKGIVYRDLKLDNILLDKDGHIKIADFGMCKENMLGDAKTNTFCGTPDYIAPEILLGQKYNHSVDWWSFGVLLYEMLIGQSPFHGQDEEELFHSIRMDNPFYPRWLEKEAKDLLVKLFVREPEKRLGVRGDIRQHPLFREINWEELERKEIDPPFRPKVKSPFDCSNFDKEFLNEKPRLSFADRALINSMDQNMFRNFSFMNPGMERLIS

Turning to `OCC1(c2cccc(-c3ccnc4[nH]ncc34)c2)CC1` [Compound 243], the Ki on PKC delta kinase is > 2000 nM; on PKC theta kinase it was < 500 nM; on PKC alpha kinase it was > 1200 nM.

Take `CC(O)c1cccc(-c2ccnc3[nH]ncc23)c1` (stereo not drawn) [Compound 244]: the Ki on PKC delta kinase was > 1200 nM; at PKC theta kinase it was > 700 nM; on PKC alpha kinase it was > 1200 nM.

As for `CCC(N)c1cccc(-c2ccnc3[nH]ncc23)c1` (stereo not drawn) [Compound 245], the values for the Ki at PKC delta kinase, at PKC theta kinase and on PKC alpha kinase were > 1200 nM, < 500 nM and > 1200 nM, respectively.

As for `CC(N)c1cccc(-c2ccnc3[nH]ncc23)c1` (stereo not drawn) [Compound 246], the Ki at PKC delta kinase was < 2800 nM; on PKC theta kinase it was < 500 nM; on PKC alpha kinase it was > 1200 nM.

For the molecule `CCCCNC(CC)c1cccc(-c2ccnc3[nH]ncc23)c1` (stereo not drawn) [Compound 247], the Ki on PKC delta kinase was > 1200 nM; on PKC theta kinase it was < 500 nM; at PKC alpha kinase, > 1200 nM.

In the case of `COC(CN)c1cc(C)cc(-c2ccnc3[nH]ncc23)c1` (stereo not drawn) [Compound 248], the values for the Ki at PKC delta kinase, on PKC theta kinase and on PKC alpha kinase were < 2800 nM, < 500 nM and < 2800 nM, respectively.

Take `N#C[C@]1(c2cccc(-c3ccnc4[nH]ncc34)c2)C[C@@H](N)C1` [Compound 249]: the Ki at PKC delta kinase was < 2800 nM; on PKC theta kinase it was < 50 nM; at PKC alpha kinase, < 500 nM.

For the molecule `Cc1cc(-c2ccnc3[nH]ncc23)cc(C(N)C2CC2(F)F)c1` (stereo not drawn) [Compound 250], the Ki was < 2800 nM on PKC delta kinase, < 500 nM on PKC theta kinase and < 500 nM on PKC alpha kinase.

For the molecule `N[C@H]1CCC[C@@H]1c1cccc(-c2ccnc3[nH]ncc23)c1` [Compound 251], the Ki at PKC delta kinase was > 1200 nM; on PKC theta kinase it was < 500 nM; on PKC alpha kinase, > 1200 nM.

As to `NC(CCC1CCCCC1)c1cccc(-c2ccnc3[nH]ncc23)c1` (stereo not drawn) [Compound 252], the Ki is > 1200 nM on PKC delta kinase, > 700 nM on PKC theta kinase and > 1200 nM at PKC alpha kinase.

Consider `NC(CCC1CCCC1)c1cccc(-c2ccnc3[nH]ncc23)c1` (stereo not drawn) [Compound 253], for which the Ki at PKC delta kinase is > 1200 nM; at PKC theta kinase, > 700 nM; at PKC alpha kinase it was > 1200 nM.

As for `CCC1(c2cccc(-c3ccnc4[nH]ncc34)c2)CNC(=O)O1` (stereo not drawn) [Compound 254], the figures for the Ki at PKC delta kinase, at PKC theta kinase and on PKC alpha kinase were < 500 nM, < 50 nM and < 500 nM, respectively.

Regarding `NCC1(c2cc(F)cc(-c3ccnc4[nH]nc(Cl)c34)c2)CCC1` [Compound 255], the Ki on PKC delta kinase, on PKC theta kinase and at PKC alpha kinase was < 50 nM throughout.

Consider `CCc1cc(-c2ccnc3[nH]nc(Cl)c23)cc(C(C)(CC)CN)c1` (stereo not drawn) [Compound 256], for which the results for the Ki at PKC delta kinase, on PKC theta kinase and at PKC alpha kinase were < 500 nM, < 50 nM and < 50 nM, respectively.

`NCC1(c2cc(F)cc(-c3ccnc4[nH]nc(Cl)c34)c2)CCOCC1` [Compound 257]: the Ki on PKC delta kinase was < 500 nM; on PKC theta kinase, < 50 nM; at PKC alpha kinase it was < 500 nM.

For `CCC(C)(CN)c1cc(F)cc(-c2ccnc3[nH]nc(Cl)c23)c1` (stereo not drawn) [Compound 258], the Ki on PKC delta kinase, on PKC theta kinase and on PKC alpha kinase was < 50 nM each time.

`N#CC1(c2cccc(-c3ccnc4[nH]nc(Cl)c34)c2)CCC1` [Compound 259]: the Ki was < 500 nM at PKC delta kinase, < 50 nM on PKC theta kinase and < 500 nM on PKC alpha kinase.

In the case of `NCC1(c2cccc(-c3ccnc4[nH]nc(Cl)c34)c2)CCC1` [Compound 260], the Ki at PKC delta kinase was < 50 nM; at PKC theta kinase, < 50 nM; on PKC alpha kinase it was < 500 nM.

As for `NCC1(c2cc(F)cc(-c3ccnc4[nH]nc(Br)c34)c2)CCC1` [Compound 261], the Ki at PKC delta kinase, at PKC theta kinase and on PKC alpha kinase was < 50 nM in each case.

On to `Cc1n[nH]c2nccc(-c3cc(F)cc(C4(CN)CCC4)c3)c12` [Compound 262], for which the Ki is < 500 nM at PKC delta kinase, < 50 nM at PKC theta kinase and < 500 nM at PKC alpha kinase.

Turning to `CCc1n[nH]c2nccc(-c3cc(F)cc(C4(CN)CCC4)c3)c12` [Compound 263], the Ki is < 500 nM on PKC delta kinase, < 50 nM on PKC theta kinase and < 50 nM at PKC alpha kinase.

On to `CCc1n[nH]c2nccc(-c3cccc(C(C)(CC)CN)c3)c12` (stereo not drawn) [Compound 264], for which the Ki at PKC delta kinase, on PKC theta kinase and on PKC alpha kinase was < 50 nM each time.

On to `CCc1n[nH]c2nccc(-c3cc(C)cc(C4(CN)CC4)c3)c12` [Compound 265], for which the results for the Ki at PKC delta kinase, on PKC theta kinase and on PKC alpha kinase were < 500 nM, < 50 nM and < 500 nM, respectively.

As for `CCC(C)(CN)c1cccc(-c2ccnc3[nH]nc(C4CC4)c23)c1` (stereo not drawn) [Compound 266], the Ki on PKC delta kinase, on PKC theta kinase and at PKC alpha kinase was < 50 nM in each case.

`NCC1(c2cc(F)cc(-c3ccnc4[nH]nc(C5CC5)c34)c2)CCC1` [Compound 267]: the Ki was < 500 nM on PKC delta kinase, < 50 nM at PKC theta kinase and < 500 nM at PKC alpha kinase.

`Cc1cc(-c2ccnc3[nH]nc(C4CC4)c23)cc(C2(CN)CC2)c1` [Compound 268]: the Ki at PKC delta kinase was < 500 nM; on PKC theta kinase it was < 50 nM; at PKC alpha kinase it was < 500 nM.

Regarding `NCc1cccc(-c2ccnc3[nH]nc(C4CC4)c23)c1` [Compound 269], the Ki was > 1200 nM on PKC delta kinase, > 700 nM at PKC theta kinase and > 1200 nM on PKC alpha kinase.

For the molecule `CCc1n[nH]c2nccc(-c3cccc(CN)c3)c12` [Compound 270], the Ki was > 1200 nM on PKC delta kinase, > 700 nM at PKC theta kinase and > 1200 nM at PKC alpha kinase.

On to `CCc1cc(-c2ccnc3[nH]nc(C(F)(F)F)c23)cc(C(C)(CC)CN)c1` (stereo not drawn) [Compound 271], for which the Ki at PKC delta kinase is < 500 nM; on PKC theta kinase, < 50 nM; on PKC alpha kinase, < 500 nM.

Take `CCc1cc(-c2ccnc3[nH]nc(C(F)(F)F)c23)cc(C2(CN)CCC2)c1` [Compound 272]: the Ki on PKC delta kinase is < 2800 nM; on PKC theta kinase, < 50 nM; at PKC alpha kinase, < 500 nM.

In the case of `N#CC1(c2cccc(-c3ccnc4[nH]nc(C(F)(F)F)c34)c2)CC1` [Compound 273], the figures for the Ki on PKC delta kinase, on PKC theta kinase and on PKC alpha kinase were < 500 nM, < 50 nM and < 500 nM, respectively.

Consider `NCC1(c2cc(F)cc(-c3ccnc4[nH]nc(C(F)(F)F)c34)c2)CCC1` [Compound 274], for which the Ki on PKC delta kinase was < 500 nM; at PKC theta kinase it was < 50 nM; at PKC alpha kinase it was < 50 nM.

On to `Cc1cc(-c2ccnc3[nH]nc(C(F)(F)F)c23)cc(C2(CN)CCOCC2)c1` [Compound 275], for which the Ki was < 500 nM at PKC delta kinase, < 50 nM at PKC theta kinase and < 500 nM on PKC alpha kinase.

As for `NCC1(c2cc(F)cc(-c3ccnc4[nH]nc(C(F)(F)F)c34)c2)CCOCC1` [Compound 276], the Ki at PKC delta kinase was < 2800 nM; on PKC theta kinase, < 50 nM; on PKC alpha kinase, < 500 nM.

With `CCC(C)(CN)c1cc(F)cc(-c2ccnc3[nH]nc(C(F)(F)F)c23)c1` (stereo not drawn) [Compound 277], the Ki on PKC delta kinase, at PKC theta kinase and at PKC alpha kinase was < 50 nM throughout.

Turning to `NCC1(c2cccc(-c3ccnc4[nH]nc(C(F)(F)F)c34)c2)CC1` [Compound 278], the results for the Ki on PKC delta kinase, at PKC theta kinase and at PKC alpha kinase were < 500 nM, < 50 nM and < 500 nM, respectively.

Turning to `N#CC1(c2cccc(-c3ccnc4[nH]nc(C(F)(F)F)c34)c2)CCC1` [Compound 279], the Ki at PKC delta kinase was < 2800 nM; at PKC theta kinase, < 50 nM; on PKC alpha kinase, < 2800 nM.

As for `NCC1(c2cccc(-c3ccnc4[nH]nc(C(F)(F)F)c34)c2)CCC1` [Compound 280], the Ki was < 500 nM on PKC delta kinase, < 50 nM at PKC theta kinase and < 500 nM at PKC alpha kinase.

Turning to `CCC(CN)c1cccc(-c2ccnc3[nH]nc(C(F)(F)F)c23)c1` (stereo not drawn) [Compound 281], the Ki at PKC delta kinase was < 50 nM; on PKC theta kinase it was < 50 nM; on PKC alpha kinase it was < 500 nM.

As for `Cc1cc(-c2ccnc3[nH]nc(C(F)(F)F)c23)cc(C2(CN)CC2)c1` [Compound 282], the Ki at PKC delta kinase was < 500 nM; on PKC theta kinase, < 50 nM; at PKC alpha kinase, < 500 nM.

With `N#CC1(c2cc(CCCN)cc(-c3ccnc4[nH]nc(C(F)(F)F)c34)c2)CC1` [Compound 283, 1-(3-(3-aminopropyl)-5-(3-(trifluoromethyl)-1H-pyrazolo[3,4-b]pyridin-4-yl)phenyl)cyclopropanecarbonitrile], the Ki on PKC delta kinase was < 2800 nM; on PKC theta kinase, < 50 nM; at PKC alpha kinase, < 500 nM.

With `COCCC(CN)c1cccc(-c2ccnc3[nH]nc(C(F)(F)F)c23)c1` (stereo not drawn) [Compound 284], the Ki at PKC delta kinase is < 500 nM; at PKC theta kinase, < 50 nM; on PKC alpha kinase, < 2800 nM.

In the case of `COCCC(C)(CN)c1cccc(-c2ccnc3[nH]nc(C(F)(F)F)c23)c1` (stereo not drawn) [Compound 285], the Ki on PKC delta kinase was < 500 nM; on PKC theta kinase, < 50 nM; at PKC alpha kinase it was < 500 nM.

On to `COCC[C@@](C)(CN)c1cccc(-c2ccnc3[nH]nc(C(F)(F)F)c23)c1` [Compound 286], for which the Ki on PKC delta kinase is < 500 nM; on PKC theta kinase it was < 50 nM; on PKC alpha kinase, < 500 nM.

Turning to `COCC[C@](C)(CN)c1cccc(-c2ccnc3[nH]nc(C(F)(F)F)c23)c1` [Compound 287], the figures for the Ki on PKC delta kinase, on PKC theta kinase and at PKC alpha kinase were < 2800 nM, < 50 nM and < 500 nM, respectively.

In the case of `CCC1(c2cccc(-c3ccnc4[nH]nc(C(F)(F)F)c34)c2)CNC(=O)O1` (stereo not drawn) [Compound 288], the values for the Ki at PKC delta kinase, on PKC theta kinase and at PKC alpha kinase were < 2800 nM, < 50 nM and < 500 nM, respectively.
